Measured values from ChEMBL document CHEMBL1201862, “PubChem BioAssay data set” (2004).
The source made the active and inactive calls.

Legend:
[1] = target: FAD-linked sulfhydryl oxidase ALR (Homo sapiens, UniProt P55789); experiment: ALR-catalysed DTT oxidation blockers – biochemical, H2O2 detection, luminescence, cherry-pick, dose response (AID 493248)
[2] = target: Protein-tyrosine kinase 2-beta (Homo sapiens, UniProt Q14289);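 also: potency of inhibitors of PYK2 kinase phosphorylation of poly-GT substrate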
[3] = target: T1, Epstein-Barr nuclear antigen 1 (Epstein-Barr virus (strain B95-8) (HHV-4) (Human herpesvirus 4), UniProt P03211); experiment: inhibition of EBV nuclear antigen 1 DNA binding – biochemical, fluorescence polarization, 1536-well, dose response (AID 2381); design: species or system human gammaherpesvirus 4;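 also: fluorescence polarization of a Cy5 DNA probe bound by EBNA-1 protein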
T1 sequence (P03211 whole entry): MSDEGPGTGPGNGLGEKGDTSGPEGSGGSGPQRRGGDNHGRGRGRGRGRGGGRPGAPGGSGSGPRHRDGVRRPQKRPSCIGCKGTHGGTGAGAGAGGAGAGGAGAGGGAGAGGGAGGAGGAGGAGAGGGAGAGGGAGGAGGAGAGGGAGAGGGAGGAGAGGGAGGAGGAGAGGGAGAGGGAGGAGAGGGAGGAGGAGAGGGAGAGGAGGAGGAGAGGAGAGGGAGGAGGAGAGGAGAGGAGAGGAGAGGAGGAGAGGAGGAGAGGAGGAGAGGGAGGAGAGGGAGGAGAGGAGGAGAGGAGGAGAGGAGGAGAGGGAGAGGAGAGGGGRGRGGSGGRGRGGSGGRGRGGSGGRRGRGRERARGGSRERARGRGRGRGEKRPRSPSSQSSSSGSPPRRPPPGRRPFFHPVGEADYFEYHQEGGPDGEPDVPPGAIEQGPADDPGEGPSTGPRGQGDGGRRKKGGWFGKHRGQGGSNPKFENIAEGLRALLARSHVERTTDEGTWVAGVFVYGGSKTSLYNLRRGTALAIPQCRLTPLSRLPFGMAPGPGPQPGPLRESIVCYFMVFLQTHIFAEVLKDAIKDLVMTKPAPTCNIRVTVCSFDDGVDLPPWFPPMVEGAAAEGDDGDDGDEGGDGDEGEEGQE

[4] = target: T2, Lytic switch protein BZLF1 (Epstein-Barr virus (strain B95-8) (HHV-4) (Human herpesvirus 4), UniProt P03206); experiment: inhibition of BZLF1 ZTA DNA binding – biochemical, fluorescence polarization, Epstein-Barr virus, 1536-well, counter-screen for EBNA-1 inhibitor project, dose response (AID 2377); design: species or system human gammaherpesvirus 4;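 also: fluorescence polarization of Cy5-labelled ZRE DNA probe bound by purified Zta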
T2 sequence (P03206 whole entry): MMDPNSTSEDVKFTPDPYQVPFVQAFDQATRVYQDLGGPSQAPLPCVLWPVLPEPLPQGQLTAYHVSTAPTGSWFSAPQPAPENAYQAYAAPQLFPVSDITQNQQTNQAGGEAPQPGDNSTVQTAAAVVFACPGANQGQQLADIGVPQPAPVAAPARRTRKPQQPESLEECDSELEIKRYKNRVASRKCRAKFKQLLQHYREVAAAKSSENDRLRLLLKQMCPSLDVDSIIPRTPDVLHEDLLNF

Estrogen receptor beta [5] = target: T3, Estrogen receptor beta (Homo sapiens, UniProt Q92731); experiment: blockers of SRC-3 recruitment to ERβ – biochemical, ELISA, streptavidin-HRP readout, orthogonal assay, confirmation (AID 1060)
Estrogen receptor beta [6] = target: T3, Estrogen receptor beta
[7] = target: T4, Carboxy-terminal domain RNA polymerase II polypeptide A small phosphatase 1 (Homo sapiens, UniProt Q9GZU7); experiment: CTDSP1 inhibitors, concentration-response, biochemical, absorbance readout, ultra-high-throughput screen actives (AID 540297); assay type: functional
T4 sequence (Q9GZU7 whole entry): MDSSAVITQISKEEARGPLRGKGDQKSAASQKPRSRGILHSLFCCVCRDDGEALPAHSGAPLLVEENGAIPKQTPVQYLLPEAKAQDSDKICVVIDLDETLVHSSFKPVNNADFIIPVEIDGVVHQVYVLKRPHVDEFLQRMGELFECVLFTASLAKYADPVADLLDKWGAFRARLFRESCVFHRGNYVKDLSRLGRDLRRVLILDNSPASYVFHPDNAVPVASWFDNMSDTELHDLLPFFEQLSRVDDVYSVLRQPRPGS

Cytochrome P450 2D6 = Cytochrome P450 2D6 (Homo sapiens, UniProt P10635); experiment: qHTS Assay for Inhibitors and Substrates of Cytochrome P450 2D6. [Related pubchem assays: 410 ]; assay type: ADME; conditions: read-out: Potency
Ion channel NompC = Ion channel NompC (Danio rerio, UniProt Q7T1G6); experiment: Fluorescence counterscreen assay for TRPML3 agonists: dose response cell-based high-throughput screening assay to identify agonists of the transient receptor potential channel N1 (TRPN1). [Related pubchem assays: 1526, 1424, 1448 ]; assay type: functional
Mucolipin-3 = target: T5, Mucolipin-3 (Homo sapiens, UniProt Q8TDD5); experiment: Dose response cell-based high-throughput screening assay for agonists of the transient receptor potential channel ML3 (TRPML3). [Related pubchem assays: 1526, 1424, 1448 ]; assay type: functional
T5 sequence (Q8TDD5 whole entry): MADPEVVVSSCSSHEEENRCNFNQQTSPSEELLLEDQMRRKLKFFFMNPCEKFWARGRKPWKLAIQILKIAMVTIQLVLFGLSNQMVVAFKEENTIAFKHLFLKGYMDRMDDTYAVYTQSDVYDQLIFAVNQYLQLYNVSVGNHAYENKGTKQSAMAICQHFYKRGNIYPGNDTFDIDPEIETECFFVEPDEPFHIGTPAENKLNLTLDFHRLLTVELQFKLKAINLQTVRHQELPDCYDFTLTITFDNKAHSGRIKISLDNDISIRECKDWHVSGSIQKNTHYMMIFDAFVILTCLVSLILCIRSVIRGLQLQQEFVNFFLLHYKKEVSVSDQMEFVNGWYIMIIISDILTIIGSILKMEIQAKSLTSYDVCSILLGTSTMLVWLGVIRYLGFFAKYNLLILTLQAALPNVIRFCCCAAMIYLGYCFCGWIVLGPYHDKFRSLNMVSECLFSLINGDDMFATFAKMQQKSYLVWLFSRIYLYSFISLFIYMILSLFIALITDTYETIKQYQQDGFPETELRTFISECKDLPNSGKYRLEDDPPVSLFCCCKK

Cytochrome P450 2C9 = Cytochrome P450 2C9 (Homo sapiens, UniProt P11712); conditions: Potency
[8] = Trypanosoma cruzi growth suppression in host cells – NIH3T3 host cells, beta-gal luminescence, confirmation (AID 2044); assay type: functional, cell-based;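 also: intracellular parasites grown in NIH/3T3 mouse fibroblasts as host cells; luminescent beta-galactosidase reporter signal from transgenic T. cruzi replicating inside host cells; inhibitors lower the luminescence signal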
[9] = NIH3T3 cell viability loss – ATP luminescence, mouse fibroblasts, counter-screen, dose response (AID 2010); assay type: functional, cell-based;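 also: cells exposed to compound for about 90 hours before reading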

Sequence of Ion channel NompC (Q7T1G6 whole entry): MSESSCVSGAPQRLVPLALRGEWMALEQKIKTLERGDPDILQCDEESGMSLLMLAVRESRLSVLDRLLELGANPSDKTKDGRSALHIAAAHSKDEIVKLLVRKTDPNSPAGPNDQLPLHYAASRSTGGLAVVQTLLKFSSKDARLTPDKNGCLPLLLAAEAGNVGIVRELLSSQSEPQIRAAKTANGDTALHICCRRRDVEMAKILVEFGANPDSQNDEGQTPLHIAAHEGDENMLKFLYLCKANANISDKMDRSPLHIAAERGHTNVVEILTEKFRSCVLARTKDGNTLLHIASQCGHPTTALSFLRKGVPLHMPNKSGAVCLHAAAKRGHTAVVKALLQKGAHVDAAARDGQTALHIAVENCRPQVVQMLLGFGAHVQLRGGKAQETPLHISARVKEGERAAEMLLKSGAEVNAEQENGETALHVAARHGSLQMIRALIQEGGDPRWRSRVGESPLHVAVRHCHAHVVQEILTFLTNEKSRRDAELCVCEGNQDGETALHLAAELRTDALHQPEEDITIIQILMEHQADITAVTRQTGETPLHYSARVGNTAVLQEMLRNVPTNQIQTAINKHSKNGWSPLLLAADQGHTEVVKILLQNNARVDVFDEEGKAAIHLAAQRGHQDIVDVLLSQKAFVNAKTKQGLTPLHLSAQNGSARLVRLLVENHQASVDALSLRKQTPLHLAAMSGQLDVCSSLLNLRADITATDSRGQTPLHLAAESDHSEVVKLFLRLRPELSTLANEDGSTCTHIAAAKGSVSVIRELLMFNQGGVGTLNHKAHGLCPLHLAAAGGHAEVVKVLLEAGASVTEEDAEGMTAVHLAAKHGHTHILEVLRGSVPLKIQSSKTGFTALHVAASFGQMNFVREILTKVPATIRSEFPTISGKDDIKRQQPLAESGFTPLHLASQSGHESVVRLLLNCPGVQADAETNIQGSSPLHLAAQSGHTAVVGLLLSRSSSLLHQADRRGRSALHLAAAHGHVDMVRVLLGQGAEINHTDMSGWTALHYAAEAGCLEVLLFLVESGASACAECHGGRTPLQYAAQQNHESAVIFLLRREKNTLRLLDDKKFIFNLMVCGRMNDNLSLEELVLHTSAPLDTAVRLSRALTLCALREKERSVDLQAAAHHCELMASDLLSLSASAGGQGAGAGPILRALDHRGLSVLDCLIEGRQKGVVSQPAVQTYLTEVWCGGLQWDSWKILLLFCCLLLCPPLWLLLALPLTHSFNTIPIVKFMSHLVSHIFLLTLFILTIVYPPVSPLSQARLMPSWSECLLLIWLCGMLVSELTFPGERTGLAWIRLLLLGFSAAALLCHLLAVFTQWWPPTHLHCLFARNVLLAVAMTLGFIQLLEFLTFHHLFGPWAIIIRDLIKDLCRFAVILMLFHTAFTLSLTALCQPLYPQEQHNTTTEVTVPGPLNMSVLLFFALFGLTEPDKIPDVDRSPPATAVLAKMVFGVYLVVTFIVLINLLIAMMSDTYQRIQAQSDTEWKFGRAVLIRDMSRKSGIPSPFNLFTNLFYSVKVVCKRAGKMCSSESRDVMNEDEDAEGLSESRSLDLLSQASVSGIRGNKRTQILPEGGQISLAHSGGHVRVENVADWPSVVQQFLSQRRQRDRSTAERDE
T3 sequence (Q92731 whole entry): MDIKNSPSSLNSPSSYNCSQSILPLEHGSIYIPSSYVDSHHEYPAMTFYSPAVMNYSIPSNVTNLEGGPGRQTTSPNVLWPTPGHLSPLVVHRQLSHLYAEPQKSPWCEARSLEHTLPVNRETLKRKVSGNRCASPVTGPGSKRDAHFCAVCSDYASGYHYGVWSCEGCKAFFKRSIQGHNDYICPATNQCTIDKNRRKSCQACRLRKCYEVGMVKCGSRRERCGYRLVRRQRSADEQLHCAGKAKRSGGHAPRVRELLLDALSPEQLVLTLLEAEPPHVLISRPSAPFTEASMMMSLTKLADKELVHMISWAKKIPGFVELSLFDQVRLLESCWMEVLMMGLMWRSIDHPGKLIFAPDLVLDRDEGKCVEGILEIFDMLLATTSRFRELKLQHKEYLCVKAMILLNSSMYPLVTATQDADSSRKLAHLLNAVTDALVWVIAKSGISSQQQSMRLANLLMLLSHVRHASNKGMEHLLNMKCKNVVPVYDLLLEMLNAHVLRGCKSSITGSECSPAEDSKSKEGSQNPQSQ
Sequence of Cytochrome P450 2D6 (P10635 whole entry): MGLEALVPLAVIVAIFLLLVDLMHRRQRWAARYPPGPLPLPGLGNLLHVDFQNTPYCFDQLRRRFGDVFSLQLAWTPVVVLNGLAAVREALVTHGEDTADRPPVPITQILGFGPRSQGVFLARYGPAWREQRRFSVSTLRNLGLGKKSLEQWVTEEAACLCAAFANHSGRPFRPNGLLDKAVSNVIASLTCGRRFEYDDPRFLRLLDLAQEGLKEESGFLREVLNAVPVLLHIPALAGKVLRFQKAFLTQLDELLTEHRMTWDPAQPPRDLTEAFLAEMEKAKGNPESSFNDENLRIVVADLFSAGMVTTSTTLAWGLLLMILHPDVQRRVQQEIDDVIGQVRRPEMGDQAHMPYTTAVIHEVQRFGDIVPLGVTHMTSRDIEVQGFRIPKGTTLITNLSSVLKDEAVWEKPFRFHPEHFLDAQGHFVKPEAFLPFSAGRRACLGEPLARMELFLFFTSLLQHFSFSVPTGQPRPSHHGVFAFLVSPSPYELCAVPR
Sequence of FAD-linked sulfhydryl oxidase ALR (P55789 whole entry): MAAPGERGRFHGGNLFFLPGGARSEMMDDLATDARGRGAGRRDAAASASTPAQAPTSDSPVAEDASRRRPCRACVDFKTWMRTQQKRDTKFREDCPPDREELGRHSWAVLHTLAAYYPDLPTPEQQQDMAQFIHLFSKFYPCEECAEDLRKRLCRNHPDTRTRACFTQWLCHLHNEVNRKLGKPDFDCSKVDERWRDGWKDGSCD
Sequence of Protein-tyrosine kinase 2-beta (Q14289 whole entry): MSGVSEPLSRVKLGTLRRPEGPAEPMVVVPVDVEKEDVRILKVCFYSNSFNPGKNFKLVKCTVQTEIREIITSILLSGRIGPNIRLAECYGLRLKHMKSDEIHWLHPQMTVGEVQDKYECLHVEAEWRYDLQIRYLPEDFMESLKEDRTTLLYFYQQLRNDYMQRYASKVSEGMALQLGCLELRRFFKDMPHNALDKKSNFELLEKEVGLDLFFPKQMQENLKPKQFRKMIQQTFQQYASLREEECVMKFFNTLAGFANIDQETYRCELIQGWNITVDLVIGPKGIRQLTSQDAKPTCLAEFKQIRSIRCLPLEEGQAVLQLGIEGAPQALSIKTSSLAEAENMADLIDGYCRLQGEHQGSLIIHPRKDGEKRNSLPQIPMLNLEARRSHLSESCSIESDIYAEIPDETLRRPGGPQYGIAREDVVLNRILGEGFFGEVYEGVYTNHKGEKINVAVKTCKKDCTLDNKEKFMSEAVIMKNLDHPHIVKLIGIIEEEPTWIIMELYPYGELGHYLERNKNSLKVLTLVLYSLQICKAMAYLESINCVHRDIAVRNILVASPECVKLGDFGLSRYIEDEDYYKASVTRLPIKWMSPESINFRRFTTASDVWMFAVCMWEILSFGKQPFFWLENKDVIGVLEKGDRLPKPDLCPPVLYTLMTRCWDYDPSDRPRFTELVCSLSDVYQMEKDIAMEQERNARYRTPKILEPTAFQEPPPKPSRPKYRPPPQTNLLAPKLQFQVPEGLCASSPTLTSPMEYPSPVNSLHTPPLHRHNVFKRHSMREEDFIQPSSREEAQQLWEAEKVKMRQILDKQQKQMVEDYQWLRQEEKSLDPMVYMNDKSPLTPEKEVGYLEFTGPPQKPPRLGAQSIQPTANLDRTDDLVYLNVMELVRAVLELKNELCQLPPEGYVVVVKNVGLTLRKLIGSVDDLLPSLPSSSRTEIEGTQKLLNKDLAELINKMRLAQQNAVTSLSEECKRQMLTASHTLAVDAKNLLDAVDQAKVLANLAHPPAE
Sequence of Cytochrome P450 2C9 (P11712 whole entry): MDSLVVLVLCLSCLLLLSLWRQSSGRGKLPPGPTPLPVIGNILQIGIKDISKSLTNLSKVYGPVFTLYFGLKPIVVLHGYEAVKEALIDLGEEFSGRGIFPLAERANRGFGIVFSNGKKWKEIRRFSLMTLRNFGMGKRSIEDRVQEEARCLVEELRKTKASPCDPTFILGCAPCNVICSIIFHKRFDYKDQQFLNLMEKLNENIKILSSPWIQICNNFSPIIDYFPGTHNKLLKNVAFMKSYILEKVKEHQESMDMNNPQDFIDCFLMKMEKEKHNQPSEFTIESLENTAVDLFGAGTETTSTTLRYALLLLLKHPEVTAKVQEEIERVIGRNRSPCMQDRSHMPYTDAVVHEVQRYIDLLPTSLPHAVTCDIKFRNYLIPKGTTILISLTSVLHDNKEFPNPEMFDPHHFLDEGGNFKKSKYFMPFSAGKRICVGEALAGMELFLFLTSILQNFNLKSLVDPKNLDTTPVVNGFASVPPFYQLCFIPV

SMILES: N#C/C(=N\Nc1c(Cl)cccc1Cl)C(=O)NN
- AC50 [1]: 2.37 µM (active)
- IC50 [2]: 28.2 µM (not active)

SMILES: O=C(Nc1ccc(-c2nc3ccccc3o2)cc1)c1ccc(N2C(=O)C3C4C=CC(C4)C3C2=O)cc1 (stereo not given)
- IC50 [3]: 5.35 µM (active)
- IC50 [4]: > 111 µM (not active)

SMILES: O=C(Cc1cccs1)Nc1ccc(S(=O)(=O)N2CCCCC2)cc1
- IC50 (Estrogen receptor beta [5]): < 77 µM (not active)
- IC50 (Estrogen receptor beta [6]): 2.71 µM (active)
- IC50 [7]: 4.95 µM (active)

SMILES: CCCCCCCCCCCCC/C=C\[C@H](O)[C@H](N)CO
- AC50 (Cytochrome P450 2D6): 12.6 µM (inconclusive)

SMILES: O=C1CN(S(=O)(=O)c2ccc(F)cc2)CC(=O)N1CCc1ccccc1
- EC50 (Ion channel NompC): > 29.9 µM (not active)
- EC50 (Mucolipin-3): 6.15 µM (active)

SMILES: O=C(Nc1cccc(-c2nnc(-c3ccccc3)o2)c1)C1CCCCC1
- IC50 [3]: 6.03 µM (active)
- IC50 [4]: > 111 µM (not active)

SMILES: Cc1cc(C)cc(N(CC(=O)N2CCOCC2)S(=O)(=O)c2ccccc2)c1
- EC50 (Ion channel NompC): > 29.9 µM (not active)
- EC50 (Mucolipin-3): 3.71 µM (active)

SMILES: C=C(C)C(O)/C=C/c1cccc(OC)c1 (stereo not given)
- AC50 (Cytochrome P450 2C9): 7.94 µM (inconclusive)
- AC50 (Cytochrome P450 2D6): 7.94 µM (inconclusive)

SMILES: c1ccc2c(C[n+]3csc4ccccc43)cccc2c1
- EC50 [8]: 0.898 µM (active)
- EC50 (Ion channel NompC): > 29.9 µM (not active)
- EC50 [9]: 22.3 µM (active)
- EC50 (Mucolipin-3): > 29.9 µM (not active)
